# Legend:
# [1] = Photoisomerisation of trans-CA-4 ex situ, composition of mixture (GC); type: physicochemical
# [2] = test system: A2780; test: Cytotoxicity/growth inhibition assay (MTT), A2780; type: cell-based; details: read-out: A2780 IC50
# How it was run: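 MTT cytotoxicity/growth-inhibition assay in human cell lines including A2780, A2780/ADR, H460 and HUVEC.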
# [3] = Maximum tolerated dose; details: mouse, in vivo; mice
# Description: The in vitro studies reported in Table 11 illustrate the structure requirements necessary for biological activity. Modifications of the A ring have shown that the methoxy groups can be replaced by alkoxy or alkyl (28,31a,32a) whilst retaining their ability to inhibit assembly of isolated tubulin. Similarly, molecules with alkyl substituents on the ethene bridge (19,20,46) retain activity both as inhibitors of tubulin assembly and are growth inhibitory in vitro. The pharmacophore consists of a stilbene in a cis configuration with a small alkyl or O-alkyl substituent at the 4-position of the B ring. […] These agents show good activity in the shape-change (permeability) assay. This test is used as an in vitro assay of vascular damage. […] 97–64H was given at either ⅔ of the maximum tolerated dose (MTD=200 mg/kg) or at ¾ of the MTD to mice bearing liver metastatic T50:80 tumours. Tumours were removed and examined for evidence of vascular damage at 2 hr and 4 hr following drug administration. Similarly a dose equivalent to ¾ of the MTD was administered and the tumours examined 24 hr and 48 hr following administration of drug. […] These effects are seen within 2 hours.
# [4] = Pharmacokinetic profile in mice; type: in vivo; details: 200 mg/kg
# [5] = GC, benzene, 400 W Hg lamp, 0 mins (Table 3)
# [6] = GC, benzene, 400 W Hg lamp, 0.5 mins (Table 3)
# [7] = GC, benzene, 400 W Hg lamp, 1.5 mins (Table 3)
# [8] = GC, benzene, 400 W Hg lamp, 3.0 mins (Table 3)
# [9] = GC, benzene, 400 W Hg lamp, 5.0 mins (Table 3)
# [10] = GC, benzene, 400 W Hg lamp, 6.5 mins (Table 3)
# [11] = GC, benzene, 400 W Hg lamp, 8.0 mins (Table 3)
# [12] = GC, benzene, 400 W Hg lamp, 10.0 mins (Table 3)
# [13] = GC, benzene, 400 W Hg lamp, 12.5 mins (Table 3)
# [14] = GC, benzene, 400 W Hg lamp, 15.0 mins (Table 3)
# [15] = GC, benzene, 400 W Hg lamp, 17.5 mins (Table 3)
# [16] = GC, benzene, 400 W Hg lamp, 20.0 mins (Table 3)
# [17] = photoisomerisation ex situ, 0 mins (Table 5)
# [18] = photoisomerisation ex situ, 0.5 mins (Table 5)
# [19] = photoisomerisation ex situ, 1.0 mins (Table 5)
# [20] = photoisomerisation ex situ, 1.5 mins (Table 5)
# [21] = photoisomerisation ex situ, 2.0 mins (Table 5)
# [22] = photoisomerisation ex situ, 3.0 mins (Table 5)
# [23] = photoisomerisation ex situ, 4.0 mins (Table 5)
# [24] = photoisomerisation ex situ, 5.0 mins (Table 5)
# [25] = photoisomerisation ex situ, 7.5 mins (Table 5)
# [26] = photoisomerisation ex situ, 10.0 mins (Table 5)
# [27] = photoisomerisation ex situ, 12.5 mins (Table 5)
# [28] = photoisomerisation ex situ, 15.0 mins (Table 5)
# [29] = photoisomerisation ex situ, 17.5 mins (Table 5)
# [30] = photoisomerisation ex situ, 20.0 mins (Table 5)
structure (smiles),measurement,setting,value
"COc1ccc(/C=C/c2cc(OC)c(OC)c(OC)c2)cc1O [trans-CA-4, trans-combretastatin A-4]",% cis-stilbene,[1]; [5],0%
same,% phenanthrene,[1]; [5],0%
same,% trans-stilbene,[1]; [5],100%
same,% cis-stilbene,[1]; [6],0%
same,% phenanthrene,[1]; [6],0%
same,% trans-stilbene,[1]; [6],100%
same,% cis-stilbene,[1]; [7],0%
same,% phenanthrene,[1]; [7],0%
same,% trans-stilbene,[1]; [7],100%
same,% cis-stilbene,[1]; [8],13%
same,% phenanthrene,[1]; [8],0%
same,% trans-stilbene,[1]; [8],87%
same,% cis-stilbene,[1]; [9],31%
same,% phenanthrene,[1]; [9],0%
same,% trans-stilbene,[1]; [9],69%
same,% cis-stilbene,[1]; [10],45%
same,% phenanthrene,[1]; [10],0%
same,% trans-stilbene,[1]; [10],55%
same,% cis-stilbene,[1]; [11],47%
same,% phenanthrene,[1]; [11],0%
same,% trans-stilbene,[1]; [11],53%
same,% cis-stilbene,[1]; [12],53%
same,% phenanthrene,[1]; [12],0%
same,% trans-stilbene,[1]; [12],44%
same,% cis-stilbene,[1]; [13],68%
same,% phenanthrene,[1]; [13],0%
same,% trans-stilbene,[1]; [13],32%
same,% cis-stilbene,[1]; [14],71%
same,% phenanthrene,[1]; [14],0%
same,% trans-stilbene,[1]; [14],29%
same,% cis-stilbene,[1]; [15],74%
same,% phenanthrene,[1]; [15],4%
same,% trans-stilbene,[1]; [15],22%
same,% cis-stilbene,[1]; [16],73%
same,% phenanthrene,[1]; [16],4%
same,% trans-stilbene,[1]; [16],23%
same,% cis,[1]; [17],0.3%
same,% phenanthrene,[1]; [17],0%
same,% trans,[1]; [17],99.7%
same,% cis,[1]; [18],2.0%
same,% phenanthrene,[1]; [18],0%
same,% trans,[1]; [18],98.0%
same,% cis,[1]; [19],3.9%
same,% phenanthrene,[1]; [19],0%
same,% trans,[1]; [19],96.1%
same,% cis,[1]; [20],6.3%
same,% phenanthrene,[1]; [20],0%
same,% trans,[1]; [20],93.7%
same,% cis,[1]; [21],7.3%
same,% phenanthrene,[1]; [21],0%
same,% trans,[1]; [21],92.7%
same,% cis,[1]; [22],25.7%
same,% phenanthrene,[1]; [22],0%
same,% trans,[1]; [22],74.3%
same,% cis,[1]; [23],37.3%
same,% phenanthrene,[1]; [23],0%
same,% trans,[1]; [23],62.3%
same,% cis,[1]; [24],47.9%
same,% phenanthrene,[1]; [24],0%
same,% trans,[1]; [24],52.1%
same,% cis,[1]; [25],56.6%
same,% phenanthrene,[1]; [25],1.4%
same,% trans,[1]; [25],40.2%
same,% cis,[1]; [26],63.1%
same,% phenanthrene,[1]; [26],2.9%
same,% trans,[1]; [26],34.0%
same,% cis,[1]; [27],64.4%
same,% phenanthrene,[1]; [27],3.4%
same,% trans,[1]; [27],32.2%
same,% cis,[1]; [28],64.6%
same,% phenanthrene,[1]; [28],3.7%
same,% trans,[1]; [28],31.7%
same,% cis,[1]; [29],65.1%
same,% phenanthrene,[1]; [29],4.1%
same,% trans,[1]; [29],30.8%
same,% cis,[1]; [30],65.7%
same,% phenanthrene,[1]; [30],3.7%
same,% trans,[1]; [30],30.6%
COc1ccc(C=Cc2cc(OC)c(OC)c(OC)c2)cc1F [Compound 97-64H],IC50,[2],3.66 nM
same,MTD,[3],200 mg/kg
same,Cmax,"[4]; mouse, in vivo, po",1.49 µg/mL
same,half-life,"[4]; mouse, in vivo, po, absorption half life",15 min
same,half-life,"[4]; mouse, in vivo, po, elimination half life",32 min
same,concentration achieved in vivo,[4]; oral,1490 µg/mL
same,concentration achieved in vivo (molar),[4]; oral,4600 µM

# Reference: patent US7220784B2, “Substituted stilbenes and their reactions” (priority 2000, dated 2007)
